The values that follow come from BindingDB's records for doi:10.1016/j.bmc.2020.115928 (Tu Dresden, 2021).

The test in a line: Inhibition of rabbit skeletal muscle myosin-2 ATPase incubated for 20 mins followed by ATP addition and measured after 20 mins.

As usually defined, the IC50 is the concentration that inhibits the measured activity by half. The low end stands for inhibition by little substance, the high end for a need for much substance. Regarding `Oc1c(Br)cc(Br)cc1-c1[nH]c(Br)c(Br)c1Br` [pentabromopseudilin], the IC50 amounted to 5.1 µM.
